Among the data in patent publication US20210122730A1, “GLUCOCORTICOID RECEPTOR MODULATORS” (ORIC Pharmaceuticals, Inc., priority 2017, published 2021) are IC50 and inhibition values, retold here.

The target in one data set is T1, GR (Homo sapiens, UniProt P04150).
T1 construct: expressed in transfected cells; host or cells: CHO-K1
T1 sequence (P04150 1-777): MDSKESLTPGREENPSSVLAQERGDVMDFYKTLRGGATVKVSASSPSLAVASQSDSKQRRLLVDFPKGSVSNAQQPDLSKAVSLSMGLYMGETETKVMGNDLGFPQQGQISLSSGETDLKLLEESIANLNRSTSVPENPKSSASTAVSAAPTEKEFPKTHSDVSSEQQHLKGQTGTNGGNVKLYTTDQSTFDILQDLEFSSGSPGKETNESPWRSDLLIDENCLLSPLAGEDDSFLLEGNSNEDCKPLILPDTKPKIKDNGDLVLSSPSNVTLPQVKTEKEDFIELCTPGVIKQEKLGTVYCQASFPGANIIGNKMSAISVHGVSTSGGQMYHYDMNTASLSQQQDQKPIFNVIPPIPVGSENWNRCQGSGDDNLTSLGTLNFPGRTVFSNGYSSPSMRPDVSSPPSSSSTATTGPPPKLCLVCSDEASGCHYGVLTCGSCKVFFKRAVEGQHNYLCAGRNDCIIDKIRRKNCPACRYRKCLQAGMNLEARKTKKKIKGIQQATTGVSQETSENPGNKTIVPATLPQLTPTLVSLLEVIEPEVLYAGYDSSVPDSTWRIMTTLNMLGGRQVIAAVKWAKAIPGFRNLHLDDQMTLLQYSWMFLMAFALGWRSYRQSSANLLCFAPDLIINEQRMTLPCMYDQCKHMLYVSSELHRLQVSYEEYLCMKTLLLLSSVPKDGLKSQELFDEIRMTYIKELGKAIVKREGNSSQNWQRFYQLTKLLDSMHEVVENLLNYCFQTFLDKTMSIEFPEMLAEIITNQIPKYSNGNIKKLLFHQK
Nature of the data set: In Vitro GR Luciferase Reporter Assay (antagonist mode, CHO-K1-GR-MMTV-Luc reporter cells). The format is cell-based. In a few lines: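 CHO-K1-GR-MMTV-Luc cells in phenol red-free DMEM with 10% CSS, stimulated with 10 nM dexamethasone (final) and treated with 8-point 1:5 compound dilutions for about 18-24 h at 37° C. Luciferase measured by OneGlo luminescence; IC50 derived for inhibition of GR activity.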
(In general: A reporter such as luciferase makes a cellular process visible.)

For the next data set, the target named is T2, CYP2C8 (Homo sapiens, UniProt P10632).
T2 construct: Pooled human microsomes were obtained from Sekisui XenoTech, KS; tissue Sekisui XenoTech, KS; host or cells: pooled human liver microsomes
T2 sequence (P10632 1-490): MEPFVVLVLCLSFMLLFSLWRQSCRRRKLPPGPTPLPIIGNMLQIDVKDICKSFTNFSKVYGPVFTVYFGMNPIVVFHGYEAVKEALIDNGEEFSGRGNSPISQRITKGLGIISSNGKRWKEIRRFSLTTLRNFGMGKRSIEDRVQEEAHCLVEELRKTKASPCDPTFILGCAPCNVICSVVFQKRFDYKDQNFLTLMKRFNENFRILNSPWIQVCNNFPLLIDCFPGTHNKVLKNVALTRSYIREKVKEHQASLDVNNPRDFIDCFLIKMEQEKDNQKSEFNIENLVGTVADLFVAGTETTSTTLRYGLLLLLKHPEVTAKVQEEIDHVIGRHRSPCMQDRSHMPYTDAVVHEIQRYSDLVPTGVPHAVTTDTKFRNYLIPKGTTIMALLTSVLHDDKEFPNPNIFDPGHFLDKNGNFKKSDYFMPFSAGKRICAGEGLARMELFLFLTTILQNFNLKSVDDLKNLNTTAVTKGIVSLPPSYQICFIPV
Description: CYP Inhibition Assay (CYP2C8, human liver microsomes, paclitaxel substrate). The format is in vitro ADME. Conditions: pH 7.4; pooled human liver microsomes 0.1 mg/mL, probe substrate paclitaxel. How it is done:
Example B: CYP Inhibition Assay
Objective: To assess the % inhibition of test compounds against CYP2C8 enzyme in human liver microsomes.
Pooled human microsomes were obtained from Sekisui XenoTech, KS, and were used for in vitro assessment of compound inhibitory potential of the major drug metabolizing human CYP enzymes.
Test compounds were dissolved in DMSO as 10 mM stock solutions and diluted to 200 µM in acetonitrile as working solutions. The total concentrations of DMSO and acetonitrile were 0.02% and 0.5%, respectively, in the assay.
The assay was performed in duplicate in a 96-well plate. The reaction mixture ([…]) containing a final concentration of 0.1 mg/mL pooled human liver microsomes, 50 mM potassium phosphate, pH 7.4 buffer, was re-warmed at 37° C. for 5 minutes. The reaction was initiated with NADPH solution which was at 1 mM final concentration, and carried out for 5 minutes at 37° C. It was terminated by the addition of 3-fold volume of quench solution (1:1 acetonitrile:methanol with 0.1% formic acid and the internal standard of tolbutamide). The sample was vortexed, centrifuged at 4,000 rpm for 15 min at 4° C. The incubation in the presence of vehicle (0.02% DMSO and 0.5% acetonitrile) was used as the enzyme activity control. The analyses of metabolite 6α-hydroxypaclitaxel in supernatant was performed with LC-MS/MS method (Sciex API 4500 Qtrap coupled to a Shimadzu LC-20AD HPLC).
The CYP enzyme activity was determined based on the formation of 6a-hydroxypaclitaxel metabolite. The % inhibition was calculated using this equation: % Inhibition=100×(1−Ainactivator/Avehicle), where Ainactivator is the CYP enzyme activity in the presence of test compound, and Avehicle is the CYP activity in the presence of vehicle.
(Liver microsomes are a subcellular fraction often used to study metabolism.)

[1] abbreviates: antagonist assay with 10 nM Dexamethasone, 18-24 hours.
The mark [2] stands for this setting: antagonist mode, 10 nM Dexamethasone.

The IC50 is the concentration that gives 50% inhibition. A low value points to greater potency in that assay. One may read the inhibition as the change of the read-out against control, counted positive when it falls. With `CCN([C@H]1CCC2=Cc3c(cnn3-c3ccc(F)cc3)C[C@]2(C(=O)c2cc(C(F)(F)F)ccn2)C1)S(=O)(=O)c1cnn(C)c1` [Example 91, N-ethyl-N-((4aS,6S)-1-(4-fluorophenyl)-4a-(4-(trifluoromethyl)picolinoyl)-4,4a,5,6,7,8-hexahydro-1H-benzo[f]indazol-6-yl)-1-methyl-1H-pyrazole-4-sulfonamide], the IC50 against GR (setting [1]) is not above 0.1 µM. Besides, the inhibition at 5 min at CYP2C8 was in the range of 50 to 75%.

At GR (setting [1]), `CN([C@H]1CCC2=Cc3c(cnn3-c3ccc(F)cc3)C[C@]2(C(=O)c2ccc(C3CC3)cn2)C1)S(=O)(=O)c1cnn(C)c1` [Example 93, N-((4aS,6S)-4a-(5-cyclopropylpicolinoyl)-1-(4-fluorophenyl)-4,4a,5,6,7,8-hexahydro-1H-benzo[f]indazol-6-yl)-N,1-dimethyl-1H-pyrazole-4-sulfonamide] came in with an IC50 not above 0.1 µM. The same compound showed an inhibition at 5 min against CYP2C8 of 75 to 90%.

Regarding `CN([C@H]1CCC2=Cc3c(cnn3-c3ccc(F)cc3)C[C@]2(C(=O)c2cc(C(F)(F)F)ccn2)C1)S(=O)(=O)C1CCOCC1` [Example 94, N-((4aS,6S)-1-(4-fluorophenyl)-4a-(4-(trifluoromethyl)picolinoyl)-4,4a,5,6,7,8-hexahydro-1H-benzo[f]indazol-6-yl)-N-methyltetrahydro-2H-pyran-4-sulfonamide], at GR (setting [1]), the IC50 was not above 0.1 µM. For the same compound, the inhibition at 5 min against CYP2C8 lay within 50 to 75%.

On to `CN([C@H]1CCC2=Cc3c(cnn3-c3ccc(F)cc3)C[C@]2(C(=O)c2cc(C(F)(F)F)ccn2)C1)S(=O)(=O)c1ccc(Cl)cc1` [Example 99, 4-chloro-N-((4aS,6S)-1-(4-fluorophenyl)-4a-(4-(trifluoromethyl)picolinoyl)-4,4a,5,6,7,8-hexahydro-1H-benzo[f]indazol-6-yl)-N-methylbenzenesulfonamide], for which the IC50 against GR (setting [1]) is not above 0.1 µM. This compound displayed an inhibition at 5 min on CYP2C8 of 25 to 50%.

As for `Cn1cc(C(=O)N(C2CC2)[C@H]2CCC3=Cc4c(cnn4-c4ccc(F)cc4)C[C@]3(C(=O)c3cc(C(F)(F)F)ccn3)C2)cn1` [Example 102, N-cyclopropyl-N-((4aS,6S)-1-(4-fluorophenyl)-4a-(4-(trifluoromethyl)picolinoyl)-4,4a,5,6,7,8-hexahydro-1H-benzo[f]indazol-6-yl)-1-methyl-1H-pyrazole-4-carboxamide], the IC50 against GR (setting [1]) was not above 0.1 µM. Moreover, the inhibition at 5 min at CYP2C8 lay within 75 to 90%.

For `CN([C@H]1CCC2=Cc3c(cnn3-c3ccc(F)cc3)C[C@]2(C(=O)c2ccc(C(F)(F)F)cn2)C1)S(=O)(=O)c1cnn(C)n1` [Example 104, N-((4aS,6S)-1-(4-fluorophenyl)-4a-(5-(trifluoromethyl)picolinoyl)-4,4a,5,6,7,8-hexahydro-1H-benzo[f]indazol-6-yl)-N,2-dimethyl-2H-1,2,3-triazole-4-sulfonamide], the IC50 at GR (setting [1]) was in the range of 0.1 to 1 µM. The compound also came in with an inhibition at 5 min at CYP2C8 of 50 to 75%.

Compound `Cn1ccc(S(=O)(=O)[C@@]2(F)CCC3=Cc4c(cnn4-c4ccc(F)cc4)C[C@]3(C(=O)c3cc(C(F)(F)F)ccn3)C2)n1` [Example 114, ((4aS,6S)-6-Fluoro-1-(4-fluorophenyl)-6-((1-methyl-1H-pyrazol-3-yl)sulfonyl)-1,4,5,6,7,8-hexahydro-4aH-benzo[f]indazol-4a-yl)(4-(trifluoromethyl)pyridin-2-yl)methanone] came in with a half-inhibitory concentration (IC50) on GR (setting [2]) not above 0.1 µM. The same compound yielded an inhibition at 5 min against CYP2C8 not above 25%.

With `CN([C@H]1CCC2=Cc3c(cnn3-c3ccc(F)cc3)C[C@]2(C(=O)c2ncc(C(F)(F)F)s2)C1)S(=O)(=O)c1cnn(C)c1` [Example 131, N-((4aS,6S)-1-(4-fluorophenyl)-4a-(5-(trifluoromethyl)thiazole-2-carbonyl)-4,4a,5,6,7,8-hexahydro-1H-benzo[f]indazol-6-yl)-N,1-dimethyl-1H-pyrazole-4-sulfonamide], the half-inhibitory concentration (IC50) against GR (setting [2]) is not above 0.1 µM. Also, the inhibition at 5 min at CYP2C8 was 50 to 75%.

`CN([C@H]1CCC2=Cc3c(cnn3-c3ccc(F)cc3)C[C@]2(C(=O)c2ncc(C3CC3)s2)C1)S(=O)(=O)c1cnn(C)c1` [Example 134, N-((4aS,6S)-4a-(5-cyclopropylthiazole-2-carbonyl)-1-(4-fluorophenyl)-4,4a,5,6,7,8-hexahydro-1H-benzo[f]indazol-6-yl)-N,1-dimethyl-1H-pyrazole-4-sulfonamide]: the IC50 on GR (setting [2]) was not above 0.1 µM. Further, on CYP2C8, the inhibition at 5 min is 75 to 90%.

Turning to `CN([C@H]1CCC2=Cc3c(cnn3-c3ccc(F)cc3)C[C@]2(C(=O)c2ncc(C3CC3)s2)C1)S(=O)(=O)c1ccn(C)n1` [Example 140, N-((4aS,6S)-4a-(5-cyclopropylthiazole-2-carbonyl)-1-(4-fluorophenyl)-4,4a,5,6,7,8-hexahydro-1H-benzo[f]indazol-6-yl)-N,1-dimethyl-1H-pyrazole-3-sulfonamide], the IC50 at GR (setting [2]) was not above 0.1 µM. The inhibition at 5 min against CYP2C8 was 75 to 90%.

On GR (setting [2]), `Cn1ncc(S(=O)(=O)N(C2CC2)[C@H]2CCC3=Cc4c(cnn4-c4ccc(F)cc4)C[C@]3(C(=O)c3cc(C(F)(F)F)ccn3)C2)n1` [Example 142, N-cyclopropyl-N-((4aS,6S)-1-(4-fluorophenyl)-4a-(4-(trifluoromethyl)picolinoyl)-4,4a,5,6,7,8-hexahydro-1H-benzo[f]indazol-6-yl)-2-methyl-2H-1,2,3-triazole-4-sulfonamide] displayed an IC50 not above 0.1 µM. On CYP2C8, this compound showed an inhibition at 5 min of 50 to 75%.

`CN([C@H]1CCC2=Cc3c(cnn3-c3ccc(F)cc3)C[C@]2(C(=O)c2ncc(C(F)(F)F)s2)C1)S(=O)(=O)c1ccn(C)n1` [Example 144, N-((4aS,6S)-1-(4-fluorophenyl)-4a-(5-(trifluoromethyl)thiazole-2-carbonyl)-4,4a,5,6,7,8-hexahydro-1H-benzo[f]indazol-6-yl)-N,1-dimethyl-1H-pyrazole-3-sulfonamide]: the IC50 on GR (setting [2]) is not above 0.1 µM. The same compound gave an inhibition at 5 min against CYP2C8 of 75 to 90%.

As to `CCN([C@H]1CCC2=Cc3c(cnn3-c3ccc(F)cc3)C[C@]2(C(=O)c2ncc(C(F)(F)F)s2)C1)S(=O)(=O)c1cnn(C)c1` [Example 153, N-ethyl-N-((4aS,6S)-1-(4-fluorophenyl)-4a-(5-(trifluoromethyl)thiazole-2-carbonyl)-4,4a,5,6,7,8-hexahydro-1H-benzo[f]indazol-6-yl)-1-methyl-1H-pyrazole-4-sulfonamide], at GR (setting [2]), the IC50 was not above 0.1 µM. In addition, on CYP2C8, the inhibition at 5 min is 50 to 75%.

The compound `CCN([C@H]1CCC2=Cc3c(cnn3-c3ccc(F)cc3)C[C@]2(C(=O)c2cc(C(F)(F)F)ccn2)C1)S(=O)(=O)c1ccn(C)n1` [Example 155, N-ethyl-N-((4aS,6S)-1-(4-fluorophenyl)-4a-(4-(trifluoromethyl)picolinoyl)-4,4a,5,6,7,8-hexahydro-1H-benzo[f]indazol-6-yl)-1-methyl-1H-pyrazole-3-sulfonamide] gave an IC50 on GR (setting [2]) not above 0.1 µM. Also, the inhibition at 5 min at CYP2C8 is 25 to 50%.
